In patent US20250206758A1, “SUBSTITUTED BRIDGED RING INHIBITOR, PREPARATION METHOD THEREFOR AND APPLICATION THEREOF” (SUZHOU ZELGEN BIOPHARMACEUTICALS CO., LTD., priority 2022, published 2025):

Tests used:
Format in all cases: cell-based
AGS = test: Cell proliferation inhibition, AGS (CellTiter-Glo 3D, 7 days); details: Homo sapiens, 168 h
Experimental: • (a) Resuscitating cells in T75 cell culture flask: • (b) When the cell confluence reaches 80-90%, subculturing the cells.
The diluted test compound was added to a 384-well cell culture plate with a nanoliter pipetting system, and duplicate wells were set up. An equal volume of culture medium was added to the positive control group; and an equal volume of DMSO was added to the negative control group, then centrifugation was conducted at 1000 rpm for 1 min at room temperature.
Cells were inoculated into a) 384-well culture plate, with an equal volume of cells added to the negative control group, and only an equal volume of culture medium added to the positive control group. The plate was centrifuged at 1000 rpm for 1 min at room temperature, and the final DMSO concentration of the compound was 0.5% at last. The plate was placed in a 37° C., 5% CO2 constant temperature incubator for 7 days.
20 μL/well of CellTiter-Glo® 3D to b) was added to 384-well cell culture plate, and the plate was shook at 320 rpm for 20 min in the dark, and incubated at room temperature in the dark for 2 hrs.
The luminescence value was read using an Envision multi-functional microplate reader.
The inhibition rate (IR) of the test compound was calculated using the following formula: IR (%)=(1−(RLU compound−RLU blank control)/(RLU meidum control−RLU blank control))*100%. The inhibition rates of different concentrations of compounds were calculated in Excel, and then the inhibition curves were plotted and the related parameters (including the minimum inhibition rate, maximum inhibition rate and IC50) were calculated using GraphPad Prism software.

AsPC-1 = test: Cell proliferation inhibition, AsPC-1 (CellTiter-Glo 3D, 7 days); details: Homo sapiens, ASPC1, 168 h; AsPC-1, 7 days
Summary of the method: (§1)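 Cells exposed to compound (final DMSO 0.5%) in duplicate for 7 days at 37 °C, 5% CO2, then CellTiter-Glo 3D added with 20 min shaking and 2 h dark incubation before luminescence. Inhibition normalized to medium and blank controls; IC50, minimum and maximum inhibition from curve fits.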

GP2D = test: Cell proliferation inhibition, GP2D (CellTiter-Glo 3D, 7 days); details: 168 h
Summary of the method: as §1

SMILES	IC50 (AGS)	IC50 (AsPC-1)	IC50 (GP2D)
Cc1c(F)c(N)cc(-c2ncc3c(N4C[C@H]5CC[C@@H](C4)N5)nc(OC[C@@]45CCCN4C[C@@]4(CC4(F)F)C5)nc3c2F)c1C(F)(F)F [Example 42, 5-(4-((1R,5S)-3,8-diazabicyclo[3.2.1]octan-3-yl)-2-(((1S,7a'S)-2,2-difluorodihydro-1′H,3′H-spiro[cyclopropan-1,2′-pyrrolizin]-7a′(5′H)-yl)methoxy)-8-fluoropyridino[4,3-d]pyrimidin-7-yl)-2-fluoro-3-methyl-4-(trifluoromethyl)aniline]	13.9 nM	8.83 nM	0.68 nM
Nc1cc(Cl)c(C(F)(F)F)c(-c2ncc3c(N4C[C@H]5CC[C@@H](C4)N5)nc(OC[C@@]45CCCN4C[C@@]4(CC4(F)F)C5)nc3c2F)c1Cl [Example 35, 3-(4-((1R,5S)-3,8-diazabicyclo[3.2.1]octan-3-yl)-2-(((1S,7a′S)-2,2-difluorodihydro-1′H,3′H-spiro[cyclopropan-1,2′-pyrrolizin]-7a′(5′H)-yl)methoxy)-8-fluoropyridino[4,3-d]pyrimidin-7-yl)-2,5-dichloro-4-(trifluoromethyl)aniline]	79.7 nM	45.7 nM	4.89 nM
Cc1c(N)cnc(C(F)(F)F)c1-c1ncc2c(N3C[C@H]4CC[C@@H](C3)N4)nc(OC[C@@]34CCCN3C[C@@]3(CC3(F)F)C4)nc2c1F [Example 54, 5-(4-((1R,5S)-3,8-diazabicyclo[3.2.1]octan-3-yl)-2-(((1S,7a'S)-2,2-difluorodihydro-1′H,3′H-spiro[cyclopropan-1,2′-pyrrolizin]-7a′(5′H)-yl)methoxy)-8-fluoropyridino[4,3-d]pyrimidin-7-yl)-4-methyl-6-(trifluoromethyl)pyridin-3-amine]	> 1000 nM	> 1000 nM	> 100 nM
N#Cc1c(N)ccc(Cl)c1-c1ncc2c(N3C[C@H]4CC[C@@H](C3)N4)nc(OC[C@@]34CCCN3C[C@@]3(CC3(F)F)C4)nc2c1F [Example 51, 2-(4-((1R,5S)-3,8-diazabicyclo[3.2.1]octan-3-yl)-2-(((1S,7a'S)-2,2-difluorodihydro-1′H,3′H-spiro[cyclopropan-1,2′-pyrrolizin]-7a′(5′H)-yl)methoxy)-8-fluoropyridino[4,3-d]pyrimidin-7-yl)-6-amino-3-chlorobenzonitrile]	> 1000 nM	> 1000 nM	> 100 nM
Nc1cc(F)c(Cl)c(-c2ncc3c(N4C[C@H]5CC[C@@H](C4)N5)nc(OC[C@@]45CCCN4C[C@@]4(CC4(F)F)C5)nc3c2F)c1Cl [Example 37, 3-(4-((1R,5S)-3,8-diazabicyclo[3.2.1]octan-3-yl)-2-(((1S,7a'S)-2,2-difluorodihydro-1′H,3′H-spiro[cyclopropan-1,2′-pyrrolizin]-7a′(5′H)-yl)methoxy)-8-fluoropyridino[4,3-d]pyrimidin-7-yl)-2,4-dichloro-5-fluoroaniline]	> 1000 nM	> 1000 nM	> 100 nM
Nc1cc(Cl)c(C(F)(F)F)c(-c2ncc3c(N4C[C@H]5CC[C@@H](C4)N5)nc(OC[C@@]45CCCN4C[C@@]4(CC4(F)F)C5)nc3c2F)c1F [Example 34, 3-(4-((1R,5S)-3,8-diazabicyclo[3.2.1]octan-3-yl)-2-(((1S,7a'S)-2,2-difluorodihydro-1′H,3′H-spiro[cyclopropan-1,2′-pyrrolizin]-7a′(5′H)-yl)methoxy)-8-fluoropyridino[4,3-d]pyrimidin-7-yl)-5-chloro-2-fluoro-4-(trifluoromethyl)aniline]	21.5 nM	11.1 nM	1.03 nM
